Experimental data from patent US7772262B2, “Substituted benzoylguanidines, method for production and use thereof as medicament or diagnostic and medicament comprising the same” (sanofi-aventis Deutschland GmbH, priority 2004, dated 2010).
Counter-ions that a name gives are not always drawn.

biological target: T1, human NHE-1 (Homo sapiens, UniProt P19634); experiment: NHE-1 inhibition, FLIPR assay of pHi recovery in transfected cell lines; type: cell-based; settings: transfected LAP-1 cell line expressing human NHE-1, read-out: NHE1 inhibition IC50
T1 construct: expressed in transfected cells
Method: Determination of the NHE Inhibition
The inhibitory concentration IC50 for NHE-1 inhibition was determined as follows:
IC50 for NHE-1 inhibition was determined in an FLIPR assay by measurement of the pHi recovery in transfected cell lines which express human NHE-1.
The assay was carried out in an FLIPR (fluorometric imaging plate reader) with black-walled 96-well microtiter plates with clear bases.
The growth medium for the transfected cells (Iscove+10% fetal calf serum) additionally contained G418 as selection antibiotic in order to ensure the presence of the transfected sequences.
The actual assay started with the removal of the growth medium and addition of 100 μl of loading buffer per well (5 μM BCECF-AM [2′,7′-bis(carboxyethyl)-5- (and -6-)carboxyfluorescein, acetoxymethyl ester] in 20 mM NH4Cl, 115 mM choline chloride, 1 mM MgCl2, 1 mM CaCl2, 5 mM KCl, 20 mM HEPES, 5 mM glucose; pH 7.4 [adjusted with KOH]). The cells were then incubated at 37° C. for 20 minutes. This incubation led to loading of the cells with the fluorescent dye whose fluorescence intensity depends on pHi, and with NH4Cl which made the cells slightly alkaline.
The nonfluorescent dye precursor BCECF-AM is, as ester, membrane-permeable. The actual dye BCECF is not membrane-permeable but is liberated inside cells by esterases.
After this incubation for 20 minutes, the loading buffer which contained NH4Cl and free BCECF-AM was removed by washing three times in a cell washer (Tecan Columbus) with in each case 400 μl of washing buffer (133.8 mM choline chloride, 4.7 mM KCl, 1.25 mM MgCl2, 1.25 mM CaCl2, 0.97 mM K2HPO4, 0.23 mM KH2PO4, 5 mM HEPES, 5 mM glucose pH 7.4 [adjusted with KOH]). The residual volume which remained in the wells was 90 μl (50-125 μl possible). This washing step removed the free BCECF-AM and resulted, as a consequence of the removal of the external NH4^+ ions, in intracellular acidification (˜pHi 6.3-6.4).
This may eventually lead to cell death if it persists long enough.
It was important at this point that the washing buffer was sodium-free (<1 mM) because extracellular sodium ions would lead to an instantaneous recovery of the pHi through the activity of the cloned NHE isoforms. It was likewise important for all the buffers used (loading buffer, washing buffer, recovery buffer) not to contain any HCO3^− ions, because the presence of bicarbonate would lead to activation of interfering bicarbonate-dependent pHi regulatory systems present in the parental LAP-1 cell line.
The microtiter plates with the acidified cells were then (up to 20 minutes after the acidification) transferred to the FLIPR. In the FLIPR, the intracellular fluorescent dye was excited by light with a wavelength of 488 nm generated by an argon laser, and the measured parameters (laser power, illumination time and aperture of the CCD camera incorporated in the FLIPR) were chosen so that the average fluorescence signal per well was between 30 000 and 35 000 relative fluorescence units.
The actual measurement in the FLIPR started with a photograph being taken by the CCD camera every two seconds under software control. After ten seconds, the recovery of the intracellular pH was initiated by adding 90 μl of recovery buffer (133.8 mM NaCl, 4.7 mM KCl, 1.25 mM MgCl2, 1.25 mM CaCl2, 0.97 mM K2HPO4, 0.23 mM KH2PO4, 10 mM HEPES, 5 mM glucose; pH 7.4 [adjusted with NaOH]) by means of the 96-well pipettor incorporated in the FLIPR.
Positive control wells (100% NHE activity) were those to which pure recovery buffer is added, while negative controls (0% NHE activity) received washing buffer. Recovery buffer with twice the concentration of test substance was added to all the other wells. Measurement in the FLIPR terminated after 60 measurements (two minutes).
The raw data are exported into the ActivityBase program. This program firstly calculates the NHE activities for each tested substance concentration and, from these, the IC50 values for the substances. […]

T1 sequence (P19634 whole entry): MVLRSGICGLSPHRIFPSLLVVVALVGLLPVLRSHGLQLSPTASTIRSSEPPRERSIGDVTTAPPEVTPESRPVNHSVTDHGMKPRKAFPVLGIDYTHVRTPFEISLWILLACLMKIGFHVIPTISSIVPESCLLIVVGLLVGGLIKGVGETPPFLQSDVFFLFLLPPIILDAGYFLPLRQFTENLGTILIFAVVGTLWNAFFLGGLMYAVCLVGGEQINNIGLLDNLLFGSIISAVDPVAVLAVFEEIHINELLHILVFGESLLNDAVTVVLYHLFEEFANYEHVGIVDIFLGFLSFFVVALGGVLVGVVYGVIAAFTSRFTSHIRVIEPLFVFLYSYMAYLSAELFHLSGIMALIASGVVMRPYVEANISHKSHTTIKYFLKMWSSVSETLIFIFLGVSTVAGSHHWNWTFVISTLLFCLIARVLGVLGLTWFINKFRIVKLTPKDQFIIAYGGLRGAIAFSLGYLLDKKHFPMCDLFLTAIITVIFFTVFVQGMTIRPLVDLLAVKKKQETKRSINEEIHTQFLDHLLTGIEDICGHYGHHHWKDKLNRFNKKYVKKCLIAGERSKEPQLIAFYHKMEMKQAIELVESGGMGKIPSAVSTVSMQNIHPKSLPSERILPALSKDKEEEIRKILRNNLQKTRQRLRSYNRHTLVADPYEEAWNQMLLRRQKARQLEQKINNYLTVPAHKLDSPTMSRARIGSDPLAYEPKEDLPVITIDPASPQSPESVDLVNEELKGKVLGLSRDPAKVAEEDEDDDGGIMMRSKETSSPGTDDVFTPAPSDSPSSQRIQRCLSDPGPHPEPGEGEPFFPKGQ

Compared with Cc1cc(N2CCCN(C3CC3)S2(=O)=O)c(S(C)(=O)=O)cc1C(=O)N=C(N)N [Example 12, N-[4-(6-Cyclopropyl-1,1-dioxo-1-[1,2,6]thiadiazinan-2-yl)-5-methanesulfonyl-2-methlbenzoyl]guanidine], Cc1cc(N2CCN(C3CC3)S2(=O)=O)c(S(C)(=O)=O)cc1C(=O)N=C(N)N [Example 11, N-[4-(5-Cyclopropyl-1,1-dioxo-1-[1,2,5]thiadiazolidin-2-yl)-5-methanesulfonyl-2-methlbenzoyl]guanidine] is 13-fold lower in IC50: 1520 nM for the first, 113 nM for the second.

Cc1cc(N2CC(c3ccc(F)cc3)CS2(=O)=O)c(S(C)(=O)=O)cc1C(=O)N=C(N)N (stereo not shown) [Example 7, N-{4-[4-(4-Fluorophenyl)-1,1-dioxoisothiazolidin-2-yl]-5-methanesulfonyl-2-methylbenzoyl}guanidine, hydrochloride] and Cc1cc(N2CC(c3ccc(F)cc3)CS2(=O)=O)c(S(C)(=O)=O)cc1C(=O)N=C(N)N.Cl (single isomer, unassigned; enantiomer b) [Example 9, N-{4-[4-(4-Fluorophenyl)-1,1-dioxoisothiazolidin-2-yl]-5-methanesulfonyl-2-methylbenzoyl}guanidine, hydrochloride, enantiomer B] are within 1.5-fold of each other in IC50: 19 nM for the first, 23 nM for the second.

Going from Cc1cc(N2CC(c3ccccc3)CS2(=O)=O)c(S(C)(=O)=O)cc1C(=O)N=C(N)N (stereo not shown) [Example 4, N-[4-(1,1-Dioxo-4-phenylisothiazolidin-2-yl)-5-methanesulfonyl-2-methylbenzoyl]guanidine, hydrochloride] to Cc1cc(N2CC(c3ccccc3)CCS2(=O)=O)c(S(C)(=O)=O)cc1C(=O)N=C(N)N (stereo not shown) [Example 10, N-[4-(1,1-Dioxo-4-phenyl-1-[1,2]thiazinan-2-yl)-5-methanesulfonyl-2-methylbenzoyl]guanidine], the IC50 rises from 6 nM to 51 nM (8.5-fold).

First: NC(N)=NC(=O)c1ccc(N2CCCS2(=O)=O)c(C(F)(F)F)c1 [Example 13, N-[4-(1,1-Dioxo-1-isothiazolidin-2-yl)-3-trifluoromethyl-benzoyl]guanidine]
Second: NC(N)=NC(=O)c1ccc(N2CCCCS2(=O)=O)c(C(F)(F)F)c1 [Example 14, N-[4-(1,1-Dioxo-1-[1,2]thiazinan-2-yl)-3-trifluoromethyl-benzoyl]guanidine]
The IC50 of the first is 1.5-fold higher: 20 nM for the first, 13 nM for the second. The second is the more potent here.

Going from Cc1cc(N2CC(c3ccccc3)CS2(=O)=O)c(S(C)(=O)=O)cc1C(=O)N=C(N)N (single isomer, unassigned; enantiomer b) [Example 6, N-[4-(1,1-Dioxo-4-phenylisothiazolidin-2-yl)-5-methanesulfonyl-2-methylbenzoyl]guanidine, hydrochloride, enantiomer B] to Cc1cc(N2CC(c3ccc(F)cc3)CS2(=O)=O)c(S(C)(=O)=O)cc1C(=O)N=C(N)N (single isomer, unassigned; enantiomer a) [Example 8, N-{4-[4-(4-Fluorophenyl)-1,1-dioxoisothiazolidin-2-yl]-5-methanesulfonyl-2-methlbenzoyl}guanidine, hydrochloride, enantiomer A], the IC50 falls from 45 nM to 12 nM (3.8-fold). The second is the more potent here.

First: Cc1cc(N2C(C)(C)CCS2(=O)=O)c(S(C)(=O)=O)cc1C(=O)N=C(N)N [Example 3, N-[4-(3,3-Dimethyl-1,1-dioxoisothiazolidin-2-yl)-5-methanesulfonyl-2-methylbenzoyl]guanidine,]
Second: Cc1cc(N2CCCS2(=O)=O)c(S(C)(=O)=O)cc1C(=O)N=C(N)N [Example 1, N-[4-(1,1-Dioxoisothiazolidin-2-yl)-5-methanesulfonyl-2-methyl-benzoyl]guanidine]
The IC50 of the first is 5.1-fold higher: 195 nM for the first, 38 nM for the second. The second is the more potent here.

Going from Cc1cc(N2CCCCS2(=O)=O)c(S(C)(=O)=O)cc1C(=O)N=C(N)N [Example 2, N-[4-(1,1-Dioxo-[1,2]thiazinan-2-yl)-5-methanesulfonyl-2-methylbenzoyl]guanidine] to Cc1cc(N2CC(c3ccccc3)CS2(=O)=O)c(S(C)(=O)=O)cc1C(=O)N=C(N)N (single isomer, unassigned; enantiomer a) [Example 5, N-[4-(1,1-Dioxo-4-phenylisothiazolidin-2-yl)-5-methanesulfonyl-2-methylbenzoyl]guanidine, hydrochloride, enantiomer A], the IC50 falls from 144 nM to 13 nM (11-fold). The second is the more potent here.

test system: not listed separately; experiment: In vivo pharmacokinetics, "n in one method", i.v. bolus in beagle dog; settings: iv; fasting male beagle dog, single i.v. bolus into jugular vein, about 1 mg/kg, plasma, co-administered (n in one)
Method: In vivo pharmacokinetics—profiling with the “n in one method”
The exposure data and the half-life were determined as characteristic pharmacokinetic data as follows:
The NHE-1 inhibitor of Example 9 of the invention and, as reference substance, the known NHE-1 inhibitor cariporide with the formula
[drawing 23] were dissolved in an aqueous, slightly acidic medium (water, pH 4, adjusted with 1M hydrochloric acid). The concentration of the aqueous formulation prepared in this way was about 1.5 mg of each substance per 1 g of solution. 10 ml of this formulation were administered as a single bolus by catheter into the jugular vein of a fasting male beagle dog (dose about 1 mg of each substance administered per kg of the dog's body weight). […]
The plasma samples were worked up and, after an HPLC separation, quantified by MS/MS. […] The exposures could be calculated using the WinNonlin computer program from the concentration-time plots (see FIG. 1) and compared with the exposure of the known NHE-1 reference substance. Since the various substances were measured in the same animal at the same time, the result was an accurate comparison of the compounds, and a ranking of the volumes of distribution was possible.

CC(C)c1ccc(C(=O)N=C(N)N)cc1S(C)(=O)=O.CS(=O)(=O)O [cariporide, reference compound] and Cc1cc(N2CC(c3ccc(F)cc3)CS2(=O)=O)c(S(C)(=O)=O)cc1C(=O)N=C(N)N.Cl (single isomer, unassigned; enantiomer b) [Example 9, N-{4-[4-(4-Fluorophenyl)-1,1-dioxoisothiazolidin-2-yl]-5-methanesulfonyl-2-methylbenzoyl}guanidine, hydrochloride, enantiomer B] are within 1.5-fold of each other in half-life: 3.3 h for the first, 4.6 h for the second.
